Measurements from ChEMBL document CHEMBL3045892, “Synthesis and evaluation of in vitro antimicrobial activity of novel 2,3-disubstituted-4-thiazolidinones from fatty acid hydrazides” (2013).
In brackets after ≈: the same amount, converted by molar mass.

Experiments:
Assay type in all cases: functional
[1] = tested on: Trichophyton mentagrophytes; test: Antifungal activity against Trichophyton mentagrophytes by disk diffusion method
Talaromyces marneffei [2] = test: Antifungal activity against Talaromyces marneffei by disk diffusion method
Aspergillus fumigatus [3] = test: Antifungal activity against Aspergillus fumigatus by disk diffusion method
Candida albicans [4] = test: Antifungal activity against Candida albicans by disk diffusion method
Escherichia coli [5] = test: Antibacterial activity against Escherichia coli ATCC 25922 incubated for 24 hr followed by subculturing measured after 18 to 24 hr
Escherichia coli [6] = test: Antibacterial activity against Escherichia coli ATCC 25922 after 24 hr by broth dilution method; conditions: ATCC 25922, 24 h
Klebsiella pneumoniae [7] = test: Antibacterial activity against Klebsiella pneumoniae clinical isolate incubated for 24 hr followed by subculturing measured after 18 to 24 hr
Klebsiella pneumoniae [8] = test: Antibacterial activity against Klebsiella pneumoniae clinical isolate after 24 hr by broth dilution method
Pseudomonas aeruginosa [9] = test: Antibacterial activity against Pseudomonas aeruginosa ATCC 27853 incubated for 24 hr followed by subculturing measured after 18 to 24 hr
Pseudomonas aeruginosa [10] = test: Antibacterial activity against Pseudomonas aeruginosa ATCC 27853 after 24 hr by broth dilution method; conditions: ATCC 27853, 24 h
Streptococcus pyogenes [11] = test: Antibacterial activity against Streptococcus pyogenes incubated for 24 hr followed by subculturing measured after 18 to 24 hr
Streptococcus pyogenes [12] = test: Antibacterial activity against Streptococcus pyogenes after 24 hr by broth dilution method
Talaromyces marneffei [13] = test: Antifungal activity against Talaromyces marneffei after 48 hr
Escherichia coli [14] = test: Antibacterial activity against Escherichia coli ATCC 25922 after 24 hr by disk diffusion method
Klebsiella pneumoniae [15] = test: Antibacterial activity against Klebsiella pneumoniae clinical isolate after 24 hr by disk diffusion method
Pseudomonas aeruginosa [16] = test: Antibacterial activity against Pseudomonas aeruginosa ATCC 27853 after 24 hr by disk diffusion method
Streptococcus pyogenes [17] = test: Antibacterial activity against Streptococcus pyogenes after 24 hr by disk diffusion method
Talaromyces marneffei [18] = test: Antifungal activity against Talaromyces marneffei incubated for 48 hr followed by subculturing measured after 48 hr
[19] = tested on: Trichophyton mentagrophytes; test: Antifungal activity against Trichophyton mentagrophytes after 48 hr
[20] = tested on: Trichophyton mentagrophytes; test: Antifungal activity against Trichophyton mentagrophytes incubated for 48 hr followed by subculturing measured after 48 hr
Aspergillus fumigatus [21] = test: Antifungal activity against Aspergillus fumigatus incubated for 48 hr followed by subculturing measured after 48 hr
Candida albicans [22] = test: Antifungal activity against Candida albicans incubated for 48 hr followed by subculturing measured after 48 hr
Aspergillus fumigatus [23] = test: Antifungal activity against Aspergillus fumigatus after 48 hr
Candida albicans [24] = test: Antifungal activity against Candida albicans after 48 hr
Staphylococcus aureus [25] = test: Antibacterial activity against methicillin-resistant Staphylococcus aureus incubated for 24 hr followed by subculturing measured after 18 to 24 hr
Staphylococcus aureus [26] = test: Antibacterial activity against methicillin-resistant Staphylococcus aureus after 24 hr by broth dilution method
Escherichia coli [27] = test: Antibacterial activity against Escherichia coli ATCC 25922 at 30 uig/disk after 24 hr by disk diffusion method
Klebsiella pneumoniae [28] = test: Antibacterial activity against Klebsiella pneumoniae clinical isolate at 30 ug/disk after 24 hr by disk diffusion method; conditions: read-out: DIZ
Pseudomonas aeruginosa [29] = test: Antibacterial activity against Pseudomonas aeruginosa ATCC 27853 at 30 ug/disk after 24 hr by disk diffusion method; conditions: ATCC 27853, 24 h, read-out: DIZ
Staphylococcus aureus [30] = test: Antibacterial activity against methicillin-resistant Staphylococcus aureus at 30 ug/disk after 24 hr by disk diffusion method; conditions: read-out: DIZ
Streptococcus pyogenes [31] = test: Antibacterial activity against Streptococcus pyogenes at 30 ug/disk after 24 hr by disk diffusion method; conditions: read-out: DIZ

Compound | diameter of the inhibition zone (DIZ) [1] [mm] | diameter of the inhibition zone (DIZ) (Talaromyces marneffei [2]) [mm] | diameter of the inhibition zone (DIZ) (Aspergillus fumigatus [3]) [mm] | diameter of the inhibition zone (DIZ) (Candida albicans [4]) [mm] | MBC (Escherichia coli [5]) [µg/mL] | MIC (Escherichia coli [6]) [µg/mL] | MBC (Klebsiella pneumoniae [7]) [µg/mL] | MIC (Klebsiella pneumoniae [8]) [µg/mL] | MBC (Pseudomonas aeruginosa [9]) [µg/mL] | MIC (Pseudomonas aeruginosa [10]) [µg/mL] | MBC (Streptococcus pyogenes [11]) [µg/mL] | MIC (Streptococcus pyogenes [12]) [µg/mL] | MIC (Talaromyces marneffei [13]) [µg/mL] | MFC (Talaromyces marneffei [18]) [µg/mL] | MIC [19] [µg/mL] | MFC [20] [µg/mL] | MFC (Aspergillus fumigatus [21]) [µg/mL] | MFC (Candida albicans [22]) [µg/mL] | MIC (Aspergillus fumigatus [23]) [µg/mL] | MIC (Candida albicans [24]) [µg/mL] | also measured
CCCCC/C=C\CC[C@H](O)CCCCCCCC(=O)NN1C(=O)CSC1c1ccc(Cl)cc1 (some centres not stated) | 14.8 | 13.3 | 18.7 | 21.2 | 100 (≈ 196 µM) | 50 (≈ 98.2 µM) | > 100 | 50 (≈ 98.2 µM) | 100 (≈ 196 µM) | 50 (≈ 98.2 µM) | 100 (≈ 196 µM) | 25 (≈ 49.1 µM) | 25 (≈ 49.1 µM) | 100 (≈ 196 µM) | 25 (≈ 49.1 µM) | 100 (≈ 196 µM) | 100 (≈ 196 µM) | 50 (≈ 98.2 µM) | 25 (≈ 49.1 µM) | 25 (≈ 49.1 µM) | diameter of the inhibition zone (DIZ) (Escherichia coli [14]): 14.3 mm; diameter of the inhibition zone (DIZ) (Klebsiella pneumoniae [15]): 13.9 mm; diameter of the inhibition zone (DIZ) (Pseudomonas aeruginosa [16]): 13.9 mm; diameter of the inhibition zone (DIZ) (Streptococcus pyogenes [17]): 15.5 mm
CCCCCC[C@@H](O)C/C=C\CCCCCCCC(=O)NN1C(=O)CSC1c1ccc(Cl)cc1 (some centres not stated) | 18.2 | 14.4 | 20.6 | 23.7 | > 100 | 50 (≈ 98.2 µM) | 100 (≈ 196 µM) | 25 (≈ 49.1 µM) | 100 (≈ 196 µM) | 50 (≈ 98.2 µM) | 100 (≈ 196 µM) | 50 (≈ 98.2 µM) | 25 (≈ 49.1 µM) | 100 (≈ 196 µM) | 25 (≈ 49.1 µM) | 50 (≈ 98.2 µM) | 50 (≈ 98.2 µM) | 50 (≈ 98.2 µM) | 25 (≈ 49.1 µM) | 25 (≈ 49.1 µM) | diameter of the inhibition zone (DIZ) (Escherichia coli [14]): 14.5 mm; diameter of the inhibition zone (DIZ) (Klebsiella pneumoniae [15]): 14.5 mm; diameter of the inhibition zone (DIZ) (Pseudomonas aeruginosa [16]): 14.1 mm; diameter of the inhibition zone (DIZ) (Streptococcus pyogenes [17]): 17.1 mm
CCCCCCCC/C=C\CCCCCCCC(=O)NN1C(=O)CSC1c1ccc(Cl)cc1 (configuration not stated) | 17.6 | 14.1 | 21.4 | 24.2 | 100 (≈ 203 µM) | 25 (≈ 50.7 µM) | 50 (≈ 101 µM) | 25 (≈ 50.7 µM) | 100 (≈ 203 µM) | 50 (≈ 101 µM) | 100 (≈ 203 µM) | 25 (≈ 50.7 µM) | 25 (≈ 50.7 µM) | 50 (≈ 101 µM) | 25 (≈ 50.7 µM) | 50 (≈ 101 µM) | 50 (≈ 101 µM) | 50 (≈ 101 µM) | 12.5 (≈ 25.3 µM) | 12.5 (≈ 25.3 µM) | diameter of the inhibition zone (DIZ) (Escherichia coli [14]): 17.6 mm; diameter of the inhibition zone (DIZ) (Klebsiella pneumoniae [15]): 17.1 mm; diameter of the inhibition zone (DIZ) (Pseudomonas aeruginosa [16]): 19.9 mm; diameter of the inhibition zone (DIZ) (Streptococcus pyogenes [17]): 18.1 mm
CCCCCCCCCCCCCCCC(=O)NN1C(=O)CSC1c1ccc(Cl)cc1 (configuration not stated) | 19.5 | 15.2 | 22.6 | 27.3 | 25 (≈ 53.5 µM) | 12.5 (≈ 26.8 µM) | 50 (≈ 107 µM) | 12.5 (≈ 26.8 µM) | 25 (≈ 53.5 µM) | 12.5 (≈ 26.8 µM) | 25 (≈ 53.5 µM) | 12.5 (≈ 26.8 µM) | 12.5 (≈ 26.8 µM) | 25 (≈ 53.5 µM) | 6.25 (≈ 13.4 µM) | 25 (≈ 53.5 µM) | 25 (≈ 53.5 µM) | 12.5 (≈ 26.8 µM) | 6.25 (≈ 13.4 µM) | 6.25 (≈ 13.4 µM) | diameter of the inhibition zone (DIZ) (Escherichia coli [14]): 23.3 mm; diameter of the inhibition zone (DIZ) (Klebsiella pneumoniae [15]): 21.4 mm; diameter of the inhibition zone (DIZ) (Pseudomonas aeruginosa [16]): 27.2 mm; diameter of the inhibition zone (DIZ) (Streptococcus pyogenes [17]): 20.4 mm
C=CCCCCCCCCC(=O)NN1C(=O)CSC1c1ccc(Cl)cc1 (configuration not stated) | 19.2 | 14.6 | 22.2 | 27.1 | 50 (≈ 127 µM) | 25 (≈ 63.3 µM) | 50 (≈ 127 µM) | 25 (≈ 63.3 µM) | 25 (≈ 63.3 µM) | 12.5 (≈ 31.6 µM) | 50 (≈ 127 µM) | 25 (≈ 63.3 µM) | 12.5 (≈ 31.6 µM) | 25 (≈ 63.3 µM) | 12.5 (≈ 31.6 µM) | 50 (≈ 127 µM) | 25 (≈ 63.3 µM) | 25 (≈ 63.3 µM) | 12.6 (≈ 31.8 µM) | 12.5 (≈ 31.6 µM) | diameter of the inhibition zone (DIZ) (Escherichia coli [14]): 19.8 mm; diameter of the inhibition zone (DIZ) (Klebsiella pneumoniae [15]): 18.3 mm; diameter of the inhibition zone (DIZ) (Pseudomonas aeruginosa [16]): 22.3 mm; diameter of the inhibition zone (DIZ) (Streptococcus pyogenes [17]): 20.2 mm
O=C(N[C@H](CO)[C@H](O)c1ccc([N+](=O)[O-])cc1)C(Cl)Cl [CHLORAMPHENICOL] | – | – | – | – | 12.5 (≈ 38.7 µM) | 6.25 (≈ 19.3 µM) | 25 (≈ 77.4 µM) | 6.25 (≈ 19.3 µM) | 25 (≈ 77.4 µM) | 12.5 (≈ 38.7 µM) | 12.5 (≈ 38.7 µM) | 12.5 (≈ 38.7 µM) | – | – | – | – | – | – | – | – | MBC (Staphylococcus aureus [25]): 12.5 µg/mL (≈ 38.7 µM); MIC (Staphylococcus aureus [26]): 6.25 µg/mL (≈ 19.3 µM); diameter of the inhibition zone (DIZ) (Escherichia coli [27]): 27 mm; zone of inhibition at 30 µg/disc (Klebsiella pneumoniae [28]): 19 mm; zone of inhibition at 30 µg/disc (Pseudomonas aeruginosa [29]): 32 mm; zone of inhibition at 30 µg/disc (Staphylococcus aureus [30]): 22 mm; zone of inhibition at 30 µg/disc (Streptococcus pyogenes [31]): 23 mm
COC1=CC(=O)C[C@@H](C)[C@]12Oc1c(Cl)c(OC)cc(OC)c1C2=O [GRISEOFULVIN] | 24 | 20 | 27 | 30 | – | – | – | – | – | – | – | – | 12.5 (≈ 35.4 µM) | 25 (≈ 70.9 µM) | 6.25 (≈ 17.7 µM) | 25 (≈ 70.9 µM) | 12.5 (≈ 35.4 µM) | 25 (≈ 70.9 µM) | 12.5 (≈ 35.4 µM) | 6.25 (≈ 17.7 µM) | –
